Tested on: 171881-019-R-J1-PDC tumor spheroid viability
Experiment: Anticancer human tumor 171881-019-R-J1-PDC patient-derived invasive breast carcinoma cell line growth inhibition [PI3K]
Conditions: spheroids with HUVEC and MSC; for IC50: curve of first compound; for viability, T/C: stronger effect = lower value; active = viability on the fitted dose curve at most 10% of control; inactive = the rest
How it was run: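 High-throughput combination screen: PI3K inhibitors crossed with targeted small molecules on complex spheroids of tumor cells, HUVEC and MSCs at 37 degrees C, 5% CO2. Top concentration was at or near clinical Cmax (otherwise 10 microM), with half-log decrements.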

[1] = second compound 0.00316 µM, first compound 0.0316 µM
[2] = second compound 0.00316 µM, first compound 0.1 µM
[3] = second compound 0.00316 µM, first compound 0.316 µM
[4] = second compound 0.00316 µM, first compound 1 µM
[5] = second compound 0.00316 µM, first compound 3.16 µM
[6] = second compound 0.00316 µM, first compound 10 µM
[7] = second compound 0.01 µM, first compound 0.0316 µM
[8] = second compound 0.01 µM, first compound 0.1 µM
[9] = second compound 0.01 µM, first compound 0.316 µM
[10] = second compound 0.01 µM, first compound 1 µM
[11] = second compound 0.01 µM, first compound 3.16 µM
[12] = second compound 0.01 µM, first compound 10 µM
[13] = second compound 0.0316 µM, first compound 0.0316 µM
[14] = second compound 0.0316 µM, first compound 0.1 µM
[15] = second compound 0.0316 µM, first compound 0.316 µM
[16] = second compound 0.0316 µM, first compound 1 µM
[17] = second compound 0.0316 µM, first compound 3.16 µM
[18] = second compound 0.0316 µM, first compound 10 µM
[19] = second compound 0.1 µM, first compound 0.0316 µM
[20] = second compound 0.1 µM, first compound 0.1 µM
[21] = second compound 0.1 µM, first compound 0.316 µM
[22] = second compound 0.1 µM, first compound 1 µM
[23] = second compound 0.1 µM, first compound 3.16 µM
[24] = second compound 0.1 µM, first compound 10 µM
[25] = second compound 0.316 µM, first compound 0.0316 µM
[26] = second compound 0.316 µM, first compound 0.1 µM
[27] = second compound 0.316 µM, first compound 0.316 µM
[28] = second compound 0.316 µM, first compound 1 µM
[29] = second compound 0.316 µM, first compound 3.16 µM
[30] = second compound 0.316 µM, first compound 10 µM
[31] = second compound 1 µM, first compound 0.0316 µM
[32] = second compound 1 µM, first compound 0.1 µM
[33] = second compound 1 µM, first compound 0.316 µM
[34] = second compound 1 µM, first compound 1 µM
[35] = second compound 1 µM, first compound 3.16 µM
[36] = second compound 1 µM, first compound 10 µM
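Also: spheroids exposed to compound for 7 days before viability read.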
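For viability, T/C in this document: 100% = DMSO vehicle-treated spheroids.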

C=CC(=O)N1CCN(c2nc(=O)n(-c3c(C)ccnc3C(C)C)c3nc(-c4c(O)cccc4F)c(F)cc23)C(C)C1 (centres undefined) + COc1c(OCCCN2CCOCC2)ccc2c3n(c(=NC(=O)c4cnc(N)nc4)nc12)CCN3
5310 nM: IC50 (second compound 0.00316 µM)
inactive: viability, T/C [1] 63.5% | viability, T/C [2] 70% | viability, T/C [3] 50% | viability, T/C [4] 66.9% | viability, T/C [5] 60.3% | viability, T/C [6] 36.9% | viability, T/C [7] 45.4% | viability, T/C [8] 49.9% | viability, T/C [9] 49% | viability, T/C [10] 51.3% | viability, T/C [11] 43.8% | viability, T/C [12] 28.4% | viability, T/C [13] 24.2% | viability, T/C [14] 25.5% | viability, T/C [15] 24.3% | viability, T/C [16] 26.2% | viability, T/C [17] 25.6% | viability, T/C [18] 13.3%
active: viability, T/C [19] 7.99% | viability, T/C [20] 8.18% | viability, T/C [21] 9.55% | viability, T/C [22] 9.16% | viability, T/C [23] 8.78% | viability, T/C [24] 4.72% | viability, T/C [25] 1.86% | viability, T/C [26] 1.72% | viability, T/C [27] 2.68% | viability, T/C [28] 2.25% | viability, T/C [29] 2.28% | viability, T/C [30] 2.01% | viability, T/C [31] 0.96% | viability, T/C [32] 0.93% | viability, T/C [33] 1.05% | viability, T/C [34] 1.41% | viability, T/C [35] 1.76% | viability, T/C [36] 3.63%
< 31.6 nM: IC50 (second compound 0.01 µM) | IC50 (second compound 0.0316 µM) | IC50 (second compound 0.1 µM) | IC50 (second compound 0.316 µM) | IC50 (second compound 1 µM)

CC(Cn1ccc(-c2ccc(C#N)c(Cl)c2)n1)NC(=O)c1cc(C(C)O)[nH]n1 (centres undefined) + COc1c(OCCCN2CCOCC2)ccc2c3n(c(=NC(=O)c4cnc(N)nc4)nc12)CCN3
inactive: viability, T/C [1] 64.2% | viability, T/C [2] 66.1% | viability, T/C [3] 55% | viability, T/C [4] 62% | viability, T/C [5] 64.5% | viability, T/C [6] 48.1% | viability, T/C [7] 48.6% | viability, T/C [8] 52.4% | viability, T/C [9] 45.4% | viability, T/C [10] 51.1% | viability, T/C [11] 45% | viability, T/C [12] 32.2% | viability, T/C [13] 22.5% | viability, T/C [14] 25.8% | viability, T/C [15] 21.9% | viability, T/C [16] 22.7% | viability, T/C [17] 24.5% | viability, T/C [18] 17.4%
< 31.6 nM: IC50 (second compound 0.01 µM) | IC50 (second compound 0.0316 µM) | IC50 (second compound 0.1 µM) | IC50 (second compound 0.316 µM) | IC50 (second compound 1 µM)
active: viability, T/C [19] 6.84% | viability, T/C [20] 7.08% | viability, T/C [21] 6.29% | viability, T/C [22] 6.57% | viability, T/C [23] 7.04% | viability, T/C [24] 5.04% | viability, T/C [25] 1.65% | viability, T/C [26] 1.42% | viability, T/C [27] 1.54% | viability, T/C [28] 1.44% | viability, T/C [29] 1.55% | viability, T/C [30] 2.61% | viability, T/C [31] 1.17% | viability, T/C [32] 0.9% | viability, T/C [33] 2.01% | viability, T/C [34] 1.22% | viability, T/C [35] 2.13% | viability, T/C [36] 3.1%
> 10000 nM: IC50 (second compound 0.00316 µM)

From PubChem BioAssay AID1963986 (Molecular Pharmacology Branch, DTP, NCI, 2024)
